Tests used:
[1] = target: T1, Calcitonin gene-related peptide type 1 receptor (Homo sapiens, UniProt O60894+Q16602); assay: Antagonist activity at CGRP receptor in human SK-N-MC cells assessed as inhibition of alpha-CGRP-induced c-AMP formation after 15 mins by radioimmunoassay; type: cell-based
[2] = target: T1, Calcitonin gene-related peptide type 1 receptor; assay: Displacement of [125I]-hCGRP from CGRP receptor in human SK-N-MC cell membranes after 2 hrs by scintillation counting analysis

T1 sequence (Q16602 whole entry, one chain of several): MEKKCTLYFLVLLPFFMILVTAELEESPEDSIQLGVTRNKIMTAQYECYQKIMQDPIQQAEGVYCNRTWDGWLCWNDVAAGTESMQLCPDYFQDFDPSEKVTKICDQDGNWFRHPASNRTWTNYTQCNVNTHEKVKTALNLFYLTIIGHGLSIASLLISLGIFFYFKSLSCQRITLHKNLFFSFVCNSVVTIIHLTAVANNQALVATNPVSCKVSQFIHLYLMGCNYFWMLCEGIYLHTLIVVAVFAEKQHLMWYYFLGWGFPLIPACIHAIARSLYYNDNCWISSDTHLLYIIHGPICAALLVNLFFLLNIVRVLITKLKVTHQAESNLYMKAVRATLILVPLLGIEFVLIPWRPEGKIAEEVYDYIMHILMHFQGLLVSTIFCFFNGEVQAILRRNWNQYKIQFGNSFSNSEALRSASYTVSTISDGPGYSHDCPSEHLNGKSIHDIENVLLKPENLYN

Row | EC50 [1] | IC50 [2] | SMILES
1 | 96 nM | 25 nM | NCCCC[C@H](NC(=O)[C@@H](Cc1cc2ccccc2s1)NC(=O)N1CCC(N2Cc3ccccc3NC2=O)CC1)C(=O)N1CCN(c2ccncc2)CC1
2 | 100 nM | 2.7 nM | NCCCC[C@H](NC(=O)[C@@H](Cc1cc2ccccc2s1)NC(=O)N1CCC(n2c(=O)[nH]c3ccccc3c2=O)CC1)C(=O)N1CCN(c2ccncc2)CC1
3 | 0.15 nM | – | NCCCC[C@H](NC(=O)[C@@H](Cc1cc(Br)c(O)c(Br)c1)NC(=O)N1CCC(n2c(=O)[nH]c3ccccc3c2=O)CC1)C(=O)N1CCN(c2ccncc2)CC1

— ChEMBL document CHEMBL3286324, “Serendipitous oxidation product of BIBN4096BS: a potent CGRP receptor antagonist” (Bioorg Med Chem Lett, 2014)
